In ChEMBL document CHEMBL3621191, “Pyrimidine sulfonylacetanilides with improved potency against key mutant viruses of HIV-1 by specific targeting of a highly conserved residue” (Eur J Med Chem, 2015):

What was measured:
[1] = biological target: Human immunodeficiency virus type 1 reverse transcriptase (Human immunodeficiency virus 1, UniProt Q72547); test: Inhibition of HIV1 reverse transcriptase p66/p51 assessed as inhibition of biotin-dUTP incorporation using poly (rA)/oligo(dT)16 as template/primer incubated for 40 mins
[2] = tested on: Human immunodeficiency virus 1; test: Antiviral activity against HIV1 3B infected in human MT4 cells assessed as reduction in virus-induced cytopathogenicity incubated for 4 days by MTT method; format: functional, organism-based; settings: Human immunodeficiency virus 1, 3B, MT4, 96 h
[3] = tested on: Human immunodeficiency virus 1; test: Antiviral activity against HIV1 3B expressing reverse transcriptase K103N + Y181C mutant infected in human MT4 cells assessed as reduction in virus-induced cytopathogenicity incubated for 4 days by MTT method; format: functional, organism-based; settings: Human immunodeficiency virus 1, 3B, MT4, 96 h
[4] = tested on: Human immunodeficiency virus 2; test: Antiviral activity against HIV2 ROD infected in human MT4 cells assessed as reduction in virus-induced cytopathogenicity incubated for 4 days by MTT method; format: functional, organism-based; settings: Human immunodeficiency virus 2, ROD, MT4, 96 h
[5] = Cytotoxicity against human MT4 cells assessed as reduction in cell viability incubated for 4 days by MTT assay; format: cell-based
[6] = Selectivity index, ratio of CC50 for human MT4 cells to EC50 for HIV1 3B infected in human MT4 cells; format: toxicity, cell-based; settings: read-out: Ratio CC50/EC50
[7] = tested on: Human immunodeficiency virus 1; test: Antiviral activity against HIV1 expressing reverse transcriptase F227L + V106A mutant; format: functional, organism-based
[8] = tested on: Human immunodeficiency virus 1; test: Antiviral activity against HIV1 expressing reverse transcriptase L100I mutant; format: functional, organism-based
[9] = tested on: Human immunodeficiency virus 1; test: Antiviral activity against HIV1 expressing reverse transcriptase K103N mutant; format: functional, organism-based
[10] = tested on: Human immunodeficiency virus 1; test: Antiviral activity against HIV1 expressing reverse transcriptase E138K mutant; format: functional, organism-based
[11] = tested on: Human immunodeficiency virus 1; test: Antiviral activity against HIV1 expressing reverse transcriptase Y181C mutant; format: functional, organism-based
[12] = tested on: Human immunodeficiency virus 1; test: Antiviral activity against HIV1 expressing reverse transcriptase Y188L mutant; format: functional, organism-based

SMILES | IC50 [1] | EC50 [2] | EC50 [3] | EC50 [4] | CC50 at 96 h [5] | selectivity ratio [6] | EC50 [7] | EC50 [8] | EC50 [9] | EC50 [10] | EC50 [11] | EC50 [12]
Cc1cc(C#N)cc(C)c1Oc1ccnc(S(=O)(=O)CC(=O)Nc2ccccc2Cl)n1 | 143000 nM | 1440 nM | > 12500 nM | > 12500 nM | 12500 nM | 8.7 | – | – | – | – | – | –
Cc1cc(C#N)cc(C)c1Oc1ccnc(S(=O)(=O)CC(=O)Nc2ccc(Cl)cc2)n1 | 720 nM | 3.5 nM | 1050 nM | > 16600 nM | 16600 nM | 4740 | 678 nM | 190 nM | 10.1 nM | 41.6 nM | 129 nM | 1420 nM
Cc1cc(C#N)cc(C)c1Oc1nc(Nc2ccc(C#N)cc2)nc(N)c1Br [ETRAVIRINE] | – | – | – | – | > 4600 nM | > 1120 | 14.9 nM | 17.7 nM | 3.2 nM | 16.8 nM | 11.5 nM | 15.9 nM
Cc1cc(C#N)cc(C)c1Oc1ccnc(S(=O)(=O)CC(=O)Nc2cc(Cl)cc(Cl)c2)n1 | 918 nM | 407 nM | > 24000 nM | > 24000 nM | 24000 nM | 58.9 | – | – | – | – | – | –
Cc1ccnc2c1NC(=O)c1cccnc1N2C1CC1 [NEVIRAPINE] | – | – | ≥ 7580 nM | – | > 15000 nM | – | > 15000 nM | 3460 nM | 9350 nM | 289 nM | ≥ 12400 nM | > 15000 nM
Cc1cc(C#N)cc(C)c1Oc1ccnc(S(=O)(=O)CC(=O)Nc2ccc(Cl)cc2Cl)n1 | 15300 nM | 285 nM | > 10400 nM | > 10400 nM | 10400 nM | 36.5 | – | – | – | – | – | –
Cc1cc(C#N)cc(C)c1Oc1ccnc(S(=O)(=O)CC(=O)Nc2ccc([N+](=O)[O-])cc2)n1 | 53 nM | 1.3 nM | 385 nM | > 59600 nM | 59600 nM | 45800 | 141 nM | 111 nM | 7.3 nM | 25.7 nM | 40.6 nM | 278 nM
Cc1cc(C#N)cc(C)c1Oc1ccnc(S(=O)(=O)CC(=O)Nc2ccc(Br)cc2)n1 | 728 nM | 2.6 nM | 957 nM | > 15600 nM | 15600 nM | 5980 | 479 nM | 184 nM | 10 nM | 39.9 nM | 116 nM | 957 nM
Cc1cc(C#N)cc(C)c1Oc1ccnc(S(=O)(=O)CC(=O)Nc2ccccc2)n1 | 15700 nM | 26 nM | > 29300 nM | > 29300 nM | 29300 nM | 1120 | – | – | – | – | – | –
Cc1cccc(NC(=O)CS(=O)(=O)c2nccc(Oc3c(C)cc(C#N)cc3C)n2)c1 | 133000 nM | 344 nM | > 25700 nM | > 25700 nM | 25700 nM | 75 | – | – | – | – | – | –
Cc1cc(C#N)cc(C)c1Oc1ccnc(SCC(=O)Nc2ccc(C#N)cc2)n1 | – | – | > 301000 nM | > 301000 nM | > 301000 nM | > 71 | – | – | – | – | – | –
Cc1cc(C#N)cc(C)c1Oc1ccnc(S(=O)(=O)CC(=O)Nc2ccc(F)cc2)n1 | 1840 nM | 8.9 nM | 4360 nM | > 26100 nM | 26100 nM | 2930 | 1480 nM | 749 nM | 40.9 nM | 227 nM | 681 nM | 3970 nM
Cc1ccc(NC(=O)CS(=O)(=O)c2nccc(Oc3c(C)cc(C#N)cc3C)n2)cc1C | 27300 nM | 77.7 nM | > 13900 nM | > 13900 nM | 13900 nM | 179 | – | – | – | – | – | –
Cc1ccc(NC(=O)CS(=O)(=O)c2nccc(Oc3c(C)cc(C#N)cc3C)n2)cc1 | 766 nM | 7.1 nM | ≥ 9620 nM | > 7490 nM | 7490 nM | 1060 | – | – | – | – | – | –
Cc1cc(C#N)cc(C)c1Oc1ccnc(S(=O)(=O)CC(=O)Nc2cccc([N+](=O)[O-])c2)n1 | 1410 nM | 47.1 nM | ≥ 7490 nM | > 23600 nM | 23600 nM | 501 | – | – | – | – | – | –
Cc1cc(C#N)cc(C)c1Oc1ccnc(S(=O)(=O)CC(=O)Nc2ccccc2F)n1 | 24300 nM | 161 nM | > 28400 nM | > 28400 nM | 28400 nM | 176 | – | – | – | – | – | –
Cc1cc(C#N)cc(C)c1Oc1ccnc(S(=O)(=O)CC(=O)Nc2cccc(Cl)c2)n1 | 978 nM | 30.6 nM | 7220 nM | > 25400 nM | 25400 nM | 831 | – | – | – | – | – | –
Cc1cc(C#N)cc(C)c1Oc1ccnc(S(=O)(=O)CC(=O)Nc2ccc(Cl)c(Cl)c2)n1 | 177 nM | 17.5 nM | 1180 nM | > 11700 nM | 11700 nM | 666 | 3200 nM | 468 nM | 44.8 nM | 244 nM | 326 nM | 1460 nM
Cc1cc(C#N)cc(C)c1Oc1ccnc(S(=O)(=O)CC(=O)Nc2ccc(C#N)cc2F)n1 | 296 nM | 34.4 nM | > 269000 nM | > 269000 nM | > 269000 nM | > 7810 | – | – | – | – | – | –
Cc1cc(C#N)cc(C)c1Oc1ccnc(S(=O)(=O)CC(=O)Nc2cccc(F)c2)n1 | 220 nM | 15.4 nM | 7150 nM | > 25900 nM | 25900 nM | 1680 | – | – | – | – | – | –
Cc1cc(C#N)cc(C)c1Oc1ccnc(S(=O)(=O)CC(=O)Nc2ccc(C#N)cc2)n1 | 65 nM | 1.7 nM | 425 nM | ≥ 32200 nM | ≥ 6010 nM | ≥ 3540 | 127 nM | 67 nM | 3.4 nM | 16.5 nM | 31.3 nM | 313 nM
COc1ccc(NC(=O)CS(=O)(=O)c2nccc(Oc3c(C)cc(C#N)cc3C)n2)cc1 | 4660 nM | 37.6 nM | > 5100 nM | > 5100 nM | 5100 nM | 136 | – | – | – | – | – | –
O=C1Nc2ccc(Cl)cc2[C@@](C#CC2CC2)(C(F)(F)F)O1 [EFAVIRENZ] | – | 6.3 nM | – | – | > 6340 nM | – | 228 nM | 95 nM | – | 5.4 nM | 8.2 nM | 348 nM
